Assay results as given in patent US9034336B2, “Immunomodulators and immunomodulator conjugates” (Regents of the University of Minnesota, priority 2011, dated 2015).

Assays:
human TLR7 = molecular target: T1, human TLR7 (Homo sapiens, UniProt Q9NYK1); experiment: TLR7/8-NF-κB reporter assay (HEK-TLR7, SEAP); format: cell-based; settings: HEK-TLR7 cells, 24 hrs; for EC50: read-out: EC50 of TLR7 (mean ± SD)
T1 construct: host or cells: HEK (HEK293) cells with NF-kB-responsive SEAP reporter
T1 sequence (Q9NYK1 27-1049): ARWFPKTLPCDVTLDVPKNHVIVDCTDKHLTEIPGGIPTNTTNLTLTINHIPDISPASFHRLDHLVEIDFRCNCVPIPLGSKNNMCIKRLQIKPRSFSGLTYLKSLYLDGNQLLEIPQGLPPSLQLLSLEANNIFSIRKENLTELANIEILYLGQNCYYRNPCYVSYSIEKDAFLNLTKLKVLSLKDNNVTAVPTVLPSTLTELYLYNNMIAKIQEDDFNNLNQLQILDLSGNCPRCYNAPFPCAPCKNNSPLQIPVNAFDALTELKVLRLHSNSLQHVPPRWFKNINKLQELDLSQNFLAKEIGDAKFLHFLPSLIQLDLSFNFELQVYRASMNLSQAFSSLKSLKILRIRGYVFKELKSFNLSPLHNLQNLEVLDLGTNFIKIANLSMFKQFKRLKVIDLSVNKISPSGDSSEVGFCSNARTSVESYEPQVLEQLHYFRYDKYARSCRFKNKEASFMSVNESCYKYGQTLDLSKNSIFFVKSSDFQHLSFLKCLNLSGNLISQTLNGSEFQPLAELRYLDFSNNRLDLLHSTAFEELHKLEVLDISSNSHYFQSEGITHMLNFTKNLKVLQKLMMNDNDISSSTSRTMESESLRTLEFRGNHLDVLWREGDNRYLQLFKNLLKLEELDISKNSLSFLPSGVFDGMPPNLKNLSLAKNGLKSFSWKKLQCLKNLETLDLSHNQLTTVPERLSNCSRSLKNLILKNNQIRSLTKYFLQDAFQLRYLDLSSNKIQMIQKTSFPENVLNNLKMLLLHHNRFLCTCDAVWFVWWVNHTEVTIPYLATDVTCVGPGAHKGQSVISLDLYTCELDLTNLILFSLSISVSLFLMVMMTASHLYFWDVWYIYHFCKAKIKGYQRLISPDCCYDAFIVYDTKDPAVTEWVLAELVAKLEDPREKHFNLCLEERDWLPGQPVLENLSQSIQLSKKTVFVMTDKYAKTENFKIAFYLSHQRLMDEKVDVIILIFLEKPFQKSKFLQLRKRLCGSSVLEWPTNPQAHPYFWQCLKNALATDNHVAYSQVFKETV
Procedure: (§1) Human embryonic kidney (HEK) cells that were stably transfected with human TLR7 or TLR8 and an NF-κB—responsive secreted embryonic alkaline phosphatase (SEAP) gene (HEK-TLR7/8) were purchased from InvivoGen (San Diego, Calif.). The procedure used to measure TLR7 or TLR8 agonist activity was conducted as described by Hood et al. (Hood J. D, et al., Human Vaccines, 2010, 6, 4, 322-335). Briefly, HEK-TLR7/8 cells were stimulated with 3.3 or 30 μM of compound in a 96-well plate in DMEM containing 10% FBS and 0.01% Normocin (InvivoGen) for 24 hrs. Twenty microliters of the supernatant from each well was incubated with Quanti-blue substrate solution (InvivoGen) at 37° C. for 1 hour and absorbance was read at 650 nm using a Synergy plate reader (Biotek, Winooski, Vt.).

human TLR8 = molecular target: T2, human TLR8 (Homo sapiens, UniProt Q9NR97); experiment: TLR7/8-NF-κB reporter assay (HEK-TLR8, SEAP); format: cell-based; settings: HEK-TLR8 cells, 24 hrs, read-out: EC50 of TLR8 (mean ± SD)
T2 construct: host or cells: HEK (HEK293) cells with NF-kB-responsive SEAP reporter
T2 sequence (Q9NR97 27-1041): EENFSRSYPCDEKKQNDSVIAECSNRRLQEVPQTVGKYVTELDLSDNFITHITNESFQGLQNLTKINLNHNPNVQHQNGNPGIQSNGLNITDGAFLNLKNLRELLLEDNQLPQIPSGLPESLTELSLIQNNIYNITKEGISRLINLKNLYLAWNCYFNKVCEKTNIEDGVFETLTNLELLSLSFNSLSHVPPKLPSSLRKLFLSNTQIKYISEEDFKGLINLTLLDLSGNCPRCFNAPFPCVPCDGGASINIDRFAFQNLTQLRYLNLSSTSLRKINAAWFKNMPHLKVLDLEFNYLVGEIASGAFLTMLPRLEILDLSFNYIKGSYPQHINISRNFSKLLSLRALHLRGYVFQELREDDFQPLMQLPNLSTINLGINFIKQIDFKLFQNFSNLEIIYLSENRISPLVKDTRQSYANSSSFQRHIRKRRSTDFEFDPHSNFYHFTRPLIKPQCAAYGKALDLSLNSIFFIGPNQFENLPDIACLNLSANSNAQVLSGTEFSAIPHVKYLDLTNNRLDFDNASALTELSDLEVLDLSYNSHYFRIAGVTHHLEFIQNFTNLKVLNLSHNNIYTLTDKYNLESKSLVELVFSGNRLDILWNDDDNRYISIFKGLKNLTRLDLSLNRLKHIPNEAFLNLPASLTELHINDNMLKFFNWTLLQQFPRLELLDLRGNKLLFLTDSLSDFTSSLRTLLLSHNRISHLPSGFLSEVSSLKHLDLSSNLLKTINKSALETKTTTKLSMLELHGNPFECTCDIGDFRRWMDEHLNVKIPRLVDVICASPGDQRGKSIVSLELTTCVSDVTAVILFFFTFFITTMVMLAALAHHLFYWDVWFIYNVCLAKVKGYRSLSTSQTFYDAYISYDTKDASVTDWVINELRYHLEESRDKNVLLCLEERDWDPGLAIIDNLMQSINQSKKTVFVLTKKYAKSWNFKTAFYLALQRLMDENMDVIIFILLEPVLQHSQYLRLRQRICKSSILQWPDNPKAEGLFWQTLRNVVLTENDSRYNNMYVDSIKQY
Procedure: as §1

Row | SMILES | EC50 of TLR7 (mean ± SD) (human TLR7) | EC50 (human TLR7) | EC50 (human TLR8)
1 | COC(=O)c1ccc2c(c1)nc(N)c1ncn(CC(C)(C)O)c12 [Compound 421, 4-amino-1-(2-hydroxy-2-methylpropyl)-7-methoxycarbonyl-1H-imidazo[4,5-c]quinoline] | NO EC50 | – | –
2 | COC(=O)c1ccc2c(c1)nc(N)c1ncn(Cc3ccccc3)c12 [Compound 422, 4-amino-1-benzyl--7-methoxycarbonyl-1H-imidazo[4,5-c]quinoline] | NO EC50 | – | –
3 | COC(=O)c1ccc2nc(N)c3ncn(CC(C)C)c3c2c1 [Compound 504, 4-amino-1-isobutyl-8-methoxycarbonyl-1H-imidazo[4,5-c]quinoline] | – | 21.2 ± 5.22 µM | 21.2 ± 19.9 µM
4 | CCOC(=O)c1ccc2c(c1)nc(N)c1ncn(CC(C)C)c12 [Compound 511, 4-Amino-7-ethoxycarbonyl-1-(2-methylpropyl)-1H-imidazo[4,5-c]quinoline] | – | 7.92 ± 1.49 µM | –
5 | COC(=O)c1ccc2c(c1)nc(N)c1nc(C)n(CC(C)(C)O)c12 [Compound 516, 4-amino-1-(2-hydroxy-2-methylpropyl)-7-methoxycarbonyl-2-methyl-1H-imidazo[4,5-c]quinoline] | – | 49.2 ± 17.3 µM | –
6 | CCc1nc2c(N)nc3cc(C(=O)OC)ccc3c2n1CC(C)(C)O [Compound 517, 4-amino-2-ethyl-1-(2-hydroxy-2-methylpropyl)-7-methoxycarbonyl-1H-imidazo[4,5-c]quinoline] | – | 29.1 ± 4.33 µM | –
7 | CCCc1nc2c(N)nc3cc(C(=O)OC)ccc3c2n1CC(C)(C)O [Compound 518, 4-amino-1-(2-hydroxy-2-methylpropyl)-7-methoxycarbonyl-2-propyl-1H-imidazo[4,5-c]quinoline] | – | 23.8 ± 4.34 µM | –
8 | CCCCc1nc2c(N)nc3cc(C(=O)OC)ccc3c2n1CCO [Compound 529, 4-Amino-2-butyl-1-(2-hydroxyethyl)-7-methoxycarbonyl-1H-imidazo[4,5-c]quinoline] | – | 22.9 ± 5.28 µM | 4.41 ± 0.49 µM
9 | COCCc1nc2c(N)nc3cc(C(=O)OC)ccc3c2n1CC(C)O (centres unmarked) [Compound 536, 4-Amino-1-(2-hydroxypropyl)-2-(2-methoxyethyl)-7-carboxylate-1H-imidazo[4,5-c]quinoline] | – | 20.2 ± 4.11 µM | 31.7 ± 1.54 µM

More lines, now with the values ahead:

Row | EC50 of TLR7 (mean ± SD) (human TLR7) | EC50 (human TLR7) | EC50 (human TLR8) | SMILES
10 | – | 2.42 ± 0.19 µM | 31 ± 10.6 µM | CCCCc1nc2c(N)nc3cc(C(=O)OC)ccc3c2n1CCOCc1ccccc1 [Compound 520, 4-Amino-1-(2-(benzyloxy)ethyl)-2-butyl-7-methoxycarbonyl 1H-imidazo[4,5-c]quinoline]
11 | – | 5.67 ± 0.81 µM | – | CCCCc1nc2c(N)nc3cc(C(=O)OC)ccc3c2n1CCOC [Compound 521, 4-Amino-2-butyl-1-(2-methoxyethyl)-7-methoxycarbonyl-1H-imidazo[4,5-c]quinolone]
12 | – | 2.21 ± 0.44 µM | 19.9 ± 1.04 µM | CCCCc1nc2c(N)nc3cc(C(=O)OCC)ccc3c2n1CC(C)(C)O [Compound 525, 4-Amino-2-butyl-1-(2-hydroxyl-2-methylprop-yl)-7-ethoxycarbonyl-1H-imidazo[4,5-c]quinoline]
13 | – | 3.94 ± 0.25 µM | 17.2 ± 5.33 µM | CCCCc1nc2c(N)nc3cc(C(=O)OC(C)C)ccc3c2n1CC(C)(C)O [Compound 526]
14 | – | 2.6 ± 0.18 µM | 7.15 ± 0.29 µM | CCCCCc1nc2c(N)nc3cc(C(=O)OC)ccc3c2n1CC(C)(C)O [Compound 527, 4-Amino-1-(2-hydroxyl-2-methylpropyl)-7-methoxy carbonyl-2-pentyl-1H-imidazo[4,5-c]quinoline]
15 | – | 2.5 ± 0.15 µM | 5.82 ± 0.2 µM | CCCCc1nc2c(N)nc3cc(C(=O)OC(C)C)ccc3c2n1CC(C)O (centres unmarked) [Compound 530, 4-Amino-2-butyl-1-(2-hydroxypropyl)-7-isopropoxycarbonyl-1H-imidazo[4,5-c]quinoline]
16 | – | 5.23 ± 0.16 µM | 4.73 ± 0.55 µM | CCCCc1nc2c(N)nc3cc(C(=O)OCC)ccc3c2n1CC(C)O (centres unmarked) [Compound 531, 4-Amino-2-butyl-1-(2-hydroxypropyl)-7-ethoxycarbonyl-1H-imidazo[4,5-c]quinoline]
17 | – | 4.79 ± 0.46 µM | – | COC(=O)c1ccc2c(c1)nc(N)c1nc(Cc3ccccc3)n(CC(C)(C)O)c12 [Compound 535, 4-Amino-2-benzyl-1-(2-hydroxyl-2-methylprop-yl)-7-methoxycarbonyl-1H-imidazo[4,5-c]quinoline]
